Active and inactive are the calls of the source.
Experiments:
[1] = biological target: T1, Intestinal-type alkaline phosphatase (Mus musculus, UniProt P24822); assay: mouse intestinal alkaline phosphatase activators, dose response, biochemical, luminescence, uHTS hits (AID 488783); assay type: functional
[2] = cytotoxicity in HEK-293T cells, dose response, cytotoxicity control for TCR NF-kB inhibitor project, luminescence, T-cell screen hits (AID 489026); assay type: functional, cell-based;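 note: cells exposed to compound about 14 hours before the viability readout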
[3] = biological target: T2, Alkaline phosphatase, tissue-nonspecific isozyme (Homo sapiens, UniProt P05186); assay: TNAP enzyme activators, dose response, selectivity assay for mouse IAP activator project, biochemical, TNAP isozyme, mouse IAP uHTS hits (AID 488880); assay type: functional
T2 sequence (P05186 whole entry): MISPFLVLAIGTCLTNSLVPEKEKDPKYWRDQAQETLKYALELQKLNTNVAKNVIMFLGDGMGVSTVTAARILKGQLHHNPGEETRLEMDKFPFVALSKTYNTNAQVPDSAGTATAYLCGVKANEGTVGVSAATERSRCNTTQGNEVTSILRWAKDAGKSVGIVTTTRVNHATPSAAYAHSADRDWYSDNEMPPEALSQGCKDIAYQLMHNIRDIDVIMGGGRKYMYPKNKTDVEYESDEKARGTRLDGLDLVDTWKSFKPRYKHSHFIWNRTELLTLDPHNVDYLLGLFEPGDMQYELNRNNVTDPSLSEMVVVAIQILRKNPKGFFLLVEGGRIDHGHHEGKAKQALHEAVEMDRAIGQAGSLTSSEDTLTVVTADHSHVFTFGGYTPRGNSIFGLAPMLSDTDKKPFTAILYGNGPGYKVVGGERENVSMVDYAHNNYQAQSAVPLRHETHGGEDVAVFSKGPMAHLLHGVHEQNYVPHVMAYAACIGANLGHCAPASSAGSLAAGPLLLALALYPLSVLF

[4] = biological target: T3, Intestinal-type alkaline phosphatase (Homo sapiens, UniProt P09923); assay: activation of human intestinal alkaline phosphatase – biochemical, dose response (AID 488873); assay type: functional
[5] = biological target: T4, Apoptotic protease-activating factor 1 (Homo sapiens, UniProt O14727); assay type: functional
T4 sequence (O14727 whole entry): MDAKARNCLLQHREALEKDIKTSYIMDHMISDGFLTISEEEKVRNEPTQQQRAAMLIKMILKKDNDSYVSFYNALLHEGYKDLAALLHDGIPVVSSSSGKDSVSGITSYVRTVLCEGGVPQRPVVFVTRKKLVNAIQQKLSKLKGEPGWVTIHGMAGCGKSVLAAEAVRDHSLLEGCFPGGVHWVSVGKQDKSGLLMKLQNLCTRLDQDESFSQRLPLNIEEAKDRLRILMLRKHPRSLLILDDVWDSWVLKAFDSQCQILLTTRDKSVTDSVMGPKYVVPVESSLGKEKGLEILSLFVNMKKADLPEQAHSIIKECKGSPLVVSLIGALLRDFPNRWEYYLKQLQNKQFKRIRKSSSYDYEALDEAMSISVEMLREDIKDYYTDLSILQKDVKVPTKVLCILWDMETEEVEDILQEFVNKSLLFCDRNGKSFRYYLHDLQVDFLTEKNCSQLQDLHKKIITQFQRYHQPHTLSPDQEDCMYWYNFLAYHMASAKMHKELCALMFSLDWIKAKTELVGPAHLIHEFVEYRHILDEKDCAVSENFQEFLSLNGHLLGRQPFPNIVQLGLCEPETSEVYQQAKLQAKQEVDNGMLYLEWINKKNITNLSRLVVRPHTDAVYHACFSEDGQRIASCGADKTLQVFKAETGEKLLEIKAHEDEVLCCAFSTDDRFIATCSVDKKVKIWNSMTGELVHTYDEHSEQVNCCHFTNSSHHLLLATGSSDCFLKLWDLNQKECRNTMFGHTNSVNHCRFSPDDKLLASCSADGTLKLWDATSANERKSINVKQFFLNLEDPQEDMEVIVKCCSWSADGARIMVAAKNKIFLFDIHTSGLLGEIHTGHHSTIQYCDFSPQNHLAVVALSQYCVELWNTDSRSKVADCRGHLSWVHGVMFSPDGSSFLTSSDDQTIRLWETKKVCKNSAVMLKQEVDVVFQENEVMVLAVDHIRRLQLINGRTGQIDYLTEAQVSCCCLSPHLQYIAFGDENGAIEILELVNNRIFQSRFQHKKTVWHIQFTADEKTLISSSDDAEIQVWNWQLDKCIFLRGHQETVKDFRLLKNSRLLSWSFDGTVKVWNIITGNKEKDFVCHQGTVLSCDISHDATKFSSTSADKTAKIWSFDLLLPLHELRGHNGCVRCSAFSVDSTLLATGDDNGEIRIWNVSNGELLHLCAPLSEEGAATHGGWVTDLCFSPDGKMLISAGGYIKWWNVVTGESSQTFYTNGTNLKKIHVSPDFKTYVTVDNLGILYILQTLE

[6] = biological target: Sphingosine 1-phosphate receptor 1 (Homo sapiens, UniProt P21453); assay: Fluorescence-based counterscreen assay for S1P4 agonists: Cell-based dose response high throughput screening assay to identify agonists of the Sphingosine 1-Phosphate Receptor 1 (S1P1). [Related pubchem assays (depositor defined):AID1509, AID1523, AID1801, AID463107, AID463118, AID463119, AID463122, AID463123, AID463129, AID463225, AID504400, AID504460]; assay type: functional
[7] = biological target: Sphingosine 1-phosphate receptor 2 (Homo sapiens, UniProt O95136); assay: Dose Response Cell Based Assay for Agonists of the S1P2 Receptor. [Related pubchem assays: 729, 736, 843 ]; assay type: functional
[8] = biological target: T5, Fatty acid synthase (Homo sapiens, UniProt P49327); assay: FAS thioesterase domain inhibitors, dose response, biochemical, kinetic fluorescence intensity (AID 624326); assay type: functional;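 note: rate of fluorescence rise from hydrolysis of a fluorogenic O-methyl fluorescein ester substrate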
[9] = biological target: Endoplasmic reticulum aminopeptidase 1 (Homo sapiens, UniProt Q9NZ08); assay: ERAP1 aminopeptidase inhibitors, dose response, biochemical, cherry-pick, set 2, plate reader (AID 743314)
[10] = biological target: T5, Fatty acid synthase; assay: FAS thioesterase domain inhibitors, dose response, biochemical, endpoint fluorescence intensity, uHTS hits (AID 624327); assay type: functional;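 note: fluorescence from hydrolysis of an O-methyl fluorescein acyl ester substrate by the enzyme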
[11] = biological target: Sphingosine 1-phosphate receptor 4 (Homo sapiens, UniProt O95977); assay: Fluorescence dose response cell-based high throughput screening assay for agonists of the Sphingosine 1-Phosphate Receptor 4 (S1P4). [Related pubchem assays: 1509 (Primary screen.), 1523 (Confirmation screen in triplicates.)]; assay type: functional
[12] = biological target: Voltage-dependent T-type calcium channel subunit alpha-1H (Homo sapiens, UniProt O95180); assay: Cav3.2 T-type channel blockers, cell-based, SynthLib3 library, HEK293 Cav3.2, fluorescence (AID 493041); assay type: functional
[13] = biological target: T3, Intestinal-type alkaline phosphatase; assay: human IAP activators, dose response, biochemical, luminescent, uHTS hits, set 2 (AID 488817); assay type: functional;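 note: potency of activators that raise enzyme activity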
[14] = biological target: T2, Alkaline phosphatase, tissue-nonspecific isozyme; assay: TNAP enzyme activators, dose response, selectivity assay for human IAP activator project, biochemical, TNAP isozyme, human IAP uHTS hits (AID 488886); assay type: functional;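 note: potency of compounds raising TNAP activity as a selectivity check on IAP activators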
[15] = biological target: T1, Intestinal-type alkaline phosphatase; assay: PubChem AID 488874; assay type: functional
[16] = biological target: T2, Alkaline phosphatase, tissue-nonspecific isozyme
[17] = biological target: T3, Intestinal-type alkaline phosphatase; assay: human intestinal alkaline phosphatase activators, dose response, biochemical, luminescence, uHTS hits (AID 463120); assay type: functional
[18] = biological target: T6, Tyrosine-protein phosphatase non-receptor type 7 (Homo sapiens, UniProt P35236); assay type: functional
T6 sequence (P35236 whole entry): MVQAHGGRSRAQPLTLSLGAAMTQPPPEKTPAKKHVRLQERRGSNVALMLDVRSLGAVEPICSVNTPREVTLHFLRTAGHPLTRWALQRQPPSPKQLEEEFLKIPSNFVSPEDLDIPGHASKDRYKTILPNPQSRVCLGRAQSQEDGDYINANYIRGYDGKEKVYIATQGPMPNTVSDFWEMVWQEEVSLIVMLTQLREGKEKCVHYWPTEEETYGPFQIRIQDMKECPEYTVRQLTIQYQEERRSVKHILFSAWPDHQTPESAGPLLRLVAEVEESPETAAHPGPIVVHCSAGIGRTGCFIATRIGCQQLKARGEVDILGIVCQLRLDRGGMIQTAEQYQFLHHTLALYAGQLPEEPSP

[19] = biological target: T7, Tyrosine-protein phosphatase non-receptor type 22 (Homo sapiens, UniProt Q9Y2R2); assay type: functional
T7 sequence (Q9Y2R2 whole entry): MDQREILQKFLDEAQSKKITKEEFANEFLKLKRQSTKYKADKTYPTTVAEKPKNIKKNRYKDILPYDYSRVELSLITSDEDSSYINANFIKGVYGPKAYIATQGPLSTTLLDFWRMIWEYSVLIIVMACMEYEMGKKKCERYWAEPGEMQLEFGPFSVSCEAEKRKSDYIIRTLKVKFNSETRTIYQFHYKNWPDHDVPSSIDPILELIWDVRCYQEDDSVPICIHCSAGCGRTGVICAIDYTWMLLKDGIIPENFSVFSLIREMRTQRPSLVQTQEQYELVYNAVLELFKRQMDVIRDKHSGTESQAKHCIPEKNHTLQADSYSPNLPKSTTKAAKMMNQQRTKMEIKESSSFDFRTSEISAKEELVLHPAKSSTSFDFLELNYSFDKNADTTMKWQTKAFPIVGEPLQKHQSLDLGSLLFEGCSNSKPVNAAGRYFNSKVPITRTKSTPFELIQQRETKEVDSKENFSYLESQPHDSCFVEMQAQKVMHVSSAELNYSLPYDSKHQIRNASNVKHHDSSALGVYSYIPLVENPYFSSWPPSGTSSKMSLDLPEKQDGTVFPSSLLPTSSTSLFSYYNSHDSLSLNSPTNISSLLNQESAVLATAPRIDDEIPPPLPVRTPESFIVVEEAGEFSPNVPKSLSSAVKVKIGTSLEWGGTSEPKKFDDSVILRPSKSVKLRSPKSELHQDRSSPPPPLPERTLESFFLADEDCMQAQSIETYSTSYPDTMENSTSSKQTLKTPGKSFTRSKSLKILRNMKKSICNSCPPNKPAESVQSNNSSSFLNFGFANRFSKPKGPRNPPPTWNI

[20] = biological target: T7, Tyrosine-protein phosphatase non-receptor type 22; assay type: functional; remark: listed apart in the source
[21] = biological target: Tumor necrosis factor (Homo sapiens, UniProt P01375); assay: TNFa-triggered NF-kB activation inhibitors, SAR follow-up, cell-based, revised (AID 2337); assay type: functional
[22] = test system: HEK293; assay: cells; conditions: Homo sapiens
[23] = test system: HEK293; assay: NOD1 signaling inhibitors, primary screen, cell-based, luminescence, uHTS (AID 1578); assay type: functional; conditions: Homo sapiens
[24] = biological target: Nucleotide-binding oligomerization domain-containing protein 2 (Homo sapiens, UniProt Q9HC29); assay: NOD2 signaling inhibitors, cell-based, luminescence, uHTS, HEK293 (AID 1566); assay type: functional
[25] = test system: HEK293; assay: NOD2 signaling inhibitors in MDP-stimulated cells, cell-based, uHTS, luminescence (AID 2001); assay type: functional; conditions: Homo sapiens
[26] = biological target: Nucleotide-binding oligomerization domain-containing protein 1 (Homo sapiens, UniProt Q9Y239); assay: NOD1 signaling inhibitors, SAR follow-up, revised (AID 2333); assay type: functional
[27] = test system: HEK293; assay: cells; assay type: functional, cell-based; conditions: Homo sapiens
[28] = test system: HEK293; assay: cells; assay type: functional, cell-based; conditions: Homo sapiens; remark: listed apart in the source
[29] = test system: HEK293; assay: cells; assay type: functional, cell-based; conditions: Homo sapiens; remark: listed apart in the source
[30] = biological target: Peroxisome proliferator-activated receptor gamma/Nuclear receptor coactivator 1 (Homo sapiens, UniProt P37231); assay: TR-FRET dose response biochemical High Throughput Screening assay for agonists of the steroid receptor coactivator 1 (SRC-1) recruitment by the peroxisome proliferator-activated receptor gamma (PPAR gamma): non-selective agonists. [Related pubchem assays (depositor defined):AID1300, AID1808, AID504735, AID631]; assay type: protein assay
[31] = biological target: Peroxisome proliferator-activated receptor gamma/Nuclear receptor coactivator 3 (Homo sapiens, UniProt P37231); assay: TR-FRET dose response biochemical High Throughput Screening assay for agonists of the steroid receptor coactivator 3 (SRC-3) recruitment by the peroxisome proliferator-activated receptor gamma (PPAR gamma): non-selective agonists. [Related pubchem assays: 1301 (Confirmation screen.), 1048 (Primary screen.)]; assay type: functional
[32] = biological target: Peroxisome proliferator-activated receptor gamma/Nuclear receptor coactivator 2 (Homo sapiens, UniProt P37231); assay: TR-FRET dose response biochemical High Throughput Screening assay for agonists of the steroid receptor coactivator 2 (SRC-2) recruitment by the peroxisome proliferator-activated receptor gamma (PPAR gamma): non-selective agonists. [Related pubchem assays: 1297, 1032 ]; assay type: functional

T3 sequence (P09923 whole entry): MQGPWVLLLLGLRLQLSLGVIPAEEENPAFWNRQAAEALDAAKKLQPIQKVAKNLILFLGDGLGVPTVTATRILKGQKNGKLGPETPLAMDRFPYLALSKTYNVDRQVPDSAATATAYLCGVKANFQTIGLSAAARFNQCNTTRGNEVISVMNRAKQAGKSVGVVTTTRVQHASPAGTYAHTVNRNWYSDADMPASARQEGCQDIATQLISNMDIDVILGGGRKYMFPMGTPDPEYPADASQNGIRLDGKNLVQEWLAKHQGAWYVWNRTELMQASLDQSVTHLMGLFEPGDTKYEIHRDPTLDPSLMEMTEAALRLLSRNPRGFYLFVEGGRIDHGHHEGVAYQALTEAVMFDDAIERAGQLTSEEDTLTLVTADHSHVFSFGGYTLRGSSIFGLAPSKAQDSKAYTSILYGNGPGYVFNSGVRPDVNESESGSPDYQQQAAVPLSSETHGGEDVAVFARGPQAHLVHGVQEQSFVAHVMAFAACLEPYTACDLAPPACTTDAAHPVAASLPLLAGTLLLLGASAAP
T5 sequence (P49327 whole entry, the tested form may be a part): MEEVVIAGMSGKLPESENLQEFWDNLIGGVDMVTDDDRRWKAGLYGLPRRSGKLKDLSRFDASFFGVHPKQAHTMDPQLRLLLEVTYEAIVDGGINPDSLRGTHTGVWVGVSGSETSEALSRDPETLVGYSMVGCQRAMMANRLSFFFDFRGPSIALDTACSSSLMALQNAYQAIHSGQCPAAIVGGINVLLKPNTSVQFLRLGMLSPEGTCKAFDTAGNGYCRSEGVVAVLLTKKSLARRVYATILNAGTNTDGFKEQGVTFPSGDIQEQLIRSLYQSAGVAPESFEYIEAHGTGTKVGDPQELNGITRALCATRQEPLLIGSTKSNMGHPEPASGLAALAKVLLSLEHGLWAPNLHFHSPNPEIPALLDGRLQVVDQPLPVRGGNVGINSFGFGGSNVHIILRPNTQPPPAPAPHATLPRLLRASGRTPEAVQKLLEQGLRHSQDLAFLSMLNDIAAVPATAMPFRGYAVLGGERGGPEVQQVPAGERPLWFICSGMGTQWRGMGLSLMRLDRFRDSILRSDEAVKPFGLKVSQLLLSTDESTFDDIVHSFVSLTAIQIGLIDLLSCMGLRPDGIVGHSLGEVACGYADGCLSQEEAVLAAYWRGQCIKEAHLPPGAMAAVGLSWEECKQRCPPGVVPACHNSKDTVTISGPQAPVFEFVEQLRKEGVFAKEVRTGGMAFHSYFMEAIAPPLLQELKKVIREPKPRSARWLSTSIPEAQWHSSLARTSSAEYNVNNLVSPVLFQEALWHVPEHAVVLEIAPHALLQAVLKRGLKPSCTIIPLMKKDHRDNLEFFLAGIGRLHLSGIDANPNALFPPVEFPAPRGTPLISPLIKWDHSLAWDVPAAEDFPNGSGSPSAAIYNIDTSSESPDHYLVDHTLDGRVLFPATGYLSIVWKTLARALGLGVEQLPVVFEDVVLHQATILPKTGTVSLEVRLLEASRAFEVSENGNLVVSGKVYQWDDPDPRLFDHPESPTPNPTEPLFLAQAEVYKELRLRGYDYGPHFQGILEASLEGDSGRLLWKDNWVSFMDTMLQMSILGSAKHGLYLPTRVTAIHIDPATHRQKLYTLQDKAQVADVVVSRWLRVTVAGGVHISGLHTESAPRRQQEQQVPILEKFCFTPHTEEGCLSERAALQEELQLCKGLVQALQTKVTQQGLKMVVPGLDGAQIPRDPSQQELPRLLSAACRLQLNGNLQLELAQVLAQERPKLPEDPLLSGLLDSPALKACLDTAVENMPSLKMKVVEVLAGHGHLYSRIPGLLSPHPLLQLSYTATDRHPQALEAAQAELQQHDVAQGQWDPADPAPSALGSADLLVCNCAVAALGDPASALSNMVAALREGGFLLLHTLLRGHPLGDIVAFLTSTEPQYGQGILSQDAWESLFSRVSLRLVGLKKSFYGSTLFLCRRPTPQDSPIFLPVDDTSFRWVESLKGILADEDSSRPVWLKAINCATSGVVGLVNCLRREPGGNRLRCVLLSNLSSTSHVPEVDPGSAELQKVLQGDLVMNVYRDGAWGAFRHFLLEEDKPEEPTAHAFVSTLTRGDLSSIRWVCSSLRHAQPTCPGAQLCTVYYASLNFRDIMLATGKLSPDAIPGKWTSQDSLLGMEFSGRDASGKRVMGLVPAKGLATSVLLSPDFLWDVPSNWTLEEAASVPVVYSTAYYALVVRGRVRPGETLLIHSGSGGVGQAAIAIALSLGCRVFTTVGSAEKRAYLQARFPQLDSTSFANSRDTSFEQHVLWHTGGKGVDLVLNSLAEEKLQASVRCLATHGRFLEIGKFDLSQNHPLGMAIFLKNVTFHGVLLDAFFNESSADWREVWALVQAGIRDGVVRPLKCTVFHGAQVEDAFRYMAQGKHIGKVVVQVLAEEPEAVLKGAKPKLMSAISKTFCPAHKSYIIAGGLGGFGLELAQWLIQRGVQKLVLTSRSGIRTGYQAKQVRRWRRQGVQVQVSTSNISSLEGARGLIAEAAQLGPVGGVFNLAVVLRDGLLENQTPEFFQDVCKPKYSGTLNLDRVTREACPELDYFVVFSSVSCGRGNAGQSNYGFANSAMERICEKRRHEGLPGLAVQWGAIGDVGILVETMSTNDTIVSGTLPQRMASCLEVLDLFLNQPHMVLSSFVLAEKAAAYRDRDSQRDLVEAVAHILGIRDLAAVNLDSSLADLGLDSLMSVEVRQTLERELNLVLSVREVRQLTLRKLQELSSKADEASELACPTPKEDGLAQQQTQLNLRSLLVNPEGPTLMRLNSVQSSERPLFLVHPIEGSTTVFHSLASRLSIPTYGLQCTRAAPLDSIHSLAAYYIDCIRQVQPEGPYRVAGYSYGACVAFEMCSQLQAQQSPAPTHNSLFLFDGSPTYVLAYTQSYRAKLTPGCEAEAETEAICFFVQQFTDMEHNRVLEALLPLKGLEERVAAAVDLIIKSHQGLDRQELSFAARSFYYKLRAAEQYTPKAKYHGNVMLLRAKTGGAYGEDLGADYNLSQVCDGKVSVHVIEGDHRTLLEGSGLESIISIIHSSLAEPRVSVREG
T1 sequence (P24822 whole entry): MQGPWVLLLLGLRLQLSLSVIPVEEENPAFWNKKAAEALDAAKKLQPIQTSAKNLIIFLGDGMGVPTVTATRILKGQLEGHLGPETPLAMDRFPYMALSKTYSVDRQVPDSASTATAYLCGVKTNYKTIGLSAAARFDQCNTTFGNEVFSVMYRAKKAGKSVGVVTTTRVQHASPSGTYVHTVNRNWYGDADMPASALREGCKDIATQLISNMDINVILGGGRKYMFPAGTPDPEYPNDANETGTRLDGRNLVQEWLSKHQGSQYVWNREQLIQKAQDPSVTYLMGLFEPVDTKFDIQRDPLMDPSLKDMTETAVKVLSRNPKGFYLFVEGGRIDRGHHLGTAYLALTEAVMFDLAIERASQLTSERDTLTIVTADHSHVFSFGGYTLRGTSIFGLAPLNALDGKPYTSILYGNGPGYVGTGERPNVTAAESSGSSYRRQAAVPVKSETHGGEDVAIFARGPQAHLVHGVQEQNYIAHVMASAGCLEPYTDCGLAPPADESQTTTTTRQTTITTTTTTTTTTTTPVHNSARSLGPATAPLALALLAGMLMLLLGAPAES
Sequence of Nucleotide-binding oligomerization domain-containing protein 1 (Q9Y239 whole entry, the tested form may be a part): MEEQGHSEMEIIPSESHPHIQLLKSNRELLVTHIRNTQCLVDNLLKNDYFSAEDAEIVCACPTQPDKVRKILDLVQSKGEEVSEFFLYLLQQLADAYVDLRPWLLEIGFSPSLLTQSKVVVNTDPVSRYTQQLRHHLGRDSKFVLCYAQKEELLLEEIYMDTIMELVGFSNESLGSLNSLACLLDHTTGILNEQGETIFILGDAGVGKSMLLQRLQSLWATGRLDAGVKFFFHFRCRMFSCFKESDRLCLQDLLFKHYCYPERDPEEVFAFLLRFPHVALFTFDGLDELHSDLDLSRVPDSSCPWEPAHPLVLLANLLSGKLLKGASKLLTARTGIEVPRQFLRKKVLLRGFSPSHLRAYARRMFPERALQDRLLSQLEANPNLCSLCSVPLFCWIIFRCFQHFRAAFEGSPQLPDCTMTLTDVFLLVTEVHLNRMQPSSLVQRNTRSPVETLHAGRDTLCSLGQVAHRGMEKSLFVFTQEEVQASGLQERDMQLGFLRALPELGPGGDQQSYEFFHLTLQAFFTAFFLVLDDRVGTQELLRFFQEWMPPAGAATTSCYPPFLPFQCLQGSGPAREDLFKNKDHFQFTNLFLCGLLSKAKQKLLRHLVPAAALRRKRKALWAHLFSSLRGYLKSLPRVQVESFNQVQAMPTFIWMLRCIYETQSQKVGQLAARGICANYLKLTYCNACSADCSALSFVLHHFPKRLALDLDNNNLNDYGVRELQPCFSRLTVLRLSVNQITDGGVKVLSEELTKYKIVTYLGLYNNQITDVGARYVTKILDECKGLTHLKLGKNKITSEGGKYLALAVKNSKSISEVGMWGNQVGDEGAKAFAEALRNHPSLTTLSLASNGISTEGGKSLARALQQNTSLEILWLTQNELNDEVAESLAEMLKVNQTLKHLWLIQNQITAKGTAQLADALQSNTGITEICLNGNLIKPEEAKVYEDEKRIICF
Sequence of Sphingosine 1-phosphate receptor 4 (O95977 whole entry): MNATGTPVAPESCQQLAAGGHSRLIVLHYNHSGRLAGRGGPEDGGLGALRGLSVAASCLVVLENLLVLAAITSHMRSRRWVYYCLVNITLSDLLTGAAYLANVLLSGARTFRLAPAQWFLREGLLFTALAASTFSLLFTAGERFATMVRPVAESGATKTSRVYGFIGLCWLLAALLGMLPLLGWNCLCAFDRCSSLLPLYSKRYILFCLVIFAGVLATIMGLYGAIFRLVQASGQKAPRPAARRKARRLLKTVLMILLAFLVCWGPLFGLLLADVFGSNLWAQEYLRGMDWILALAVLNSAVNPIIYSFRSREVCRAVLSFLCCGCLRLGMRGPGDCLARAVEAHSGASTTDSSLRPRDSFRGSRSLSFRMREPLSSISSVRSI

Cc1cc(O)c2c(c1O)C(=O)[C@]13C(=C2O)C(=O)[C@@H]2[C@@H](O)[C@H]1[C@@H]1[C@H](O)[C@H]3C(=O)C3=C(O)c4c(O)cc(C)c(O)c4C(=O)[C@]312
EC50 [1]: 43.1 µM (active)
IC50 [2]: > 80 µM (inactive)
EC50 [3]: 51.2 µM (active)
EC50 [4]: 63.3 µM (active)
IC50 [5]: 19.5 µM (active)

O=S(=O)(c1ccc(N2CCC(c3ccc(Cl)cc3)=N2)cc1)N(CCO)CCO
EC50 [6]: 3.12 µM (active)
EC50 [7]: 1.95 µM (active)
IC50 [8]: 0.469 µM (active)
AC50 [9]: 13 µM (active)
IC50 [10]: 0.434 µM (active)
EC50 [11]: 3.65 µM (active)

CC(C)Cc1nnc(NC(=O)COc2ccc(Cl)cc2Cl)o1
EC50 [12]: 1.8 µM (active)

CCCOCC(O)CC(CC)C(=O)NNC(=S)Nc1ccccc1 (configuration not stated)
EC50 [13]: 15.1 µM (active)
EC50 [14]: 16.2 µM (active)
IC50 [15]: 69.5 µM (active)
EC50 [16]: > 100 µM (not active)
EC50 [17]: 14.1 µM (active)

Cc1cc(C(=O)NCCCN2CCCC2=O)cs1
IC50 [18]: > 79.4 µM (inactive)
IC50 [19]: > 79.4 µM (inactive)
IC50 [20]: > 79.4 µM (inactive)

O=C(Nc1nnc(S(=O)(=O)N2CCCCCC2)s1)c1ccc(Br)cc1
IC50 [21]: > 20 µM (inactive)
IC50 [22]: > 20 µM (inactive)
EC50 [23]: 1.56 µM (active)
EC50 [24]: 10.4 µM (active)
IC50 [25]: 18.1 µM (inactive)
IC50 [26]: 5.53 µM (active)
IC50 [27]: > 20 µM (inactive)
IC50 [28]: > 20 µM (inactive)
IC50 [29]: 14.2 µM (active)

c1cc2c(cnc3cscc32)s1
EC50 [30]: 8.78 µM (active)
EC50 [31]: 69.3 µM (not active)
EC50 [32]: 12 µM (not active)
